Assay [1] has as its system mice (Strain: C57BL/6). The note with it: C57BL/6 mice fasted 24 hours; single application given on successive days, 2.5 mg/kg of body weight s.c.; food consumption over 4 days; vs physiological saline; FIG. 1. Here is the method: Test method by single administration:
(§1) 10 mice (Strain: C57BL/6) were deprived of food for 24 hours while being given free access to drinking water.
20 minutes before the end of the fasting period pramipexol was administered (2.5 mg/kg of body weight s.c.). The control group, also 10 mice, were given physiological saline solution, the solvent used for pramipexol. Then the animals were offered food and the food consumption over 4 days in 30 minute cycles was measured.

Assay [2] deals with mice (Strain: C57BL/6). The protocol: as §1

Where two headings read alike, the source gives them in different places.

For `CCCN[C@H]1CCc2nc(N)sc2C1` [Pramipexol], the food intake result is “did not significantly reduce food intake” in the assay with mice (Strain: C57BL/6) [1] and “permanent, statistically highly significant inhibition in food intake” with mice (Strain: C57BL/6) [2] (C57BL/6 mice fasted 24 hours, continuous administration by alzet Mini-osmotic pump s.c., 2.5 mg of pramipexol/24 hours, measured for 4 days, vs physiological saline, FIG. 1). For the same compound, the change in weight entry with mice (Strain: C57BL/6) [2] (C57BL/6 mice, continuous (long term) administration by osmotic pump s.c., measured daily over 22 days, administration ending after 14 days, FIG. 2) is on record as “permanent weight reduction was observed which was statistically highly significant even after the pramipexol treatment had ended”.

(Values after patent US20040266794A1, “Pramipexole for the reduction of excessive food intake for children” (Boehringer Ingelheim International GmbH, priority 2003, published 2004).)
